The source made the active and inactive calls. The calls are words filed in the database; no cut-off is given here.
How the values were obtained:
Cortical neurone [1] = assay: Neuroprotective activity in Sprague-Dawley rat cortical neurons assessed as reduction in C2 ceramide-induced cell death treated for 2 hrs followed by challenged with C2 ceramide for 24 hrs by MTT assay; format: functional
Cortical neurone [2] = assay: Neuroprotective activity in Sprague-Dawley rat cortical neurons assessed as reduction in C2 ceramide-induced cell death at 30 uM for 2 hrs followed by challenged with C2 ceramide for 24 hrs by MTT assay; format: functional
[3] = (§1) Neuroprotective activity in Sprague-Dawley rat cortical neurons assessed as reduction in C2 ceramide-induced cell death measured as cell survival at 1 uM for 2 hrs followed by challenged with C2 ceramide for 24 hrs by MTT assay; format: functional, Cortical neurone
[4] = as §1, with “10” for “1”, “assay in presence of PD98059 ERK1/2 inhibitor (reference value: 100.2 +/- 1.7%)” for “assay”; format: functional, Cortical neurone
Cortical neurone [5] = assay: Neuroprotective activity in Sprague-Dawley rat cortical neurons assessed as attenuation of C2 ceramide-induced apoptosis at 10 uM challenged with C2 ceramide for 24 hrs by Hoechst 33258 staining; format: functional
[6] = Neuroprotective activity in Sprague-Dawley rat cortical neurons assessed as reduction in C2 ceramide-induced cell death measured as cell survival at 5 uM for 2 hrs followed by challenged with C2 ceramide for 24 hrs by MTT assay; format: functional, Cortical neurone
[7] = Neuroprotective activity in Sprague-Dawley rat cortical neurons assessed as reduction in C2 ceramide-induced cell death measured as cell survival at 2.5 uM for 2 hrs followed by challenged with C2 ceramide for 24 hrs by MTT assay; format: functional, Cortical neurone
[8] = Neuroprotective activity in Sprague-Dawley rat cortical neurons assessed as reduction in C2 ceramide-induced cell death measured as cell survival at 10 uM for 2 hrs followed by challenged with C2 ceramide for 24 hrs by MTT assay; format: functional, Cortical neurone
[9] = Neuroprotective activity in Sprague-Dawley rat cortical neurons assessed as reduction in C2 ceramide-induced cell death measured as cell survival at 10 uM for 2 hrs followed by challenged with C2 ceramide for 24 hrs by MTT assay in presence of U0126 ERK1/2 inhibitor (reference value: 100.2 +/- 1.7%); format: functional, Cortical neurone
[10] = Cytotoxicity against Sprague-Dawley rat cortical neurons at 10 uM for 24 hrs by MTT assay; settings: cortical neurone

**Q.** Which Activity (Cortical neurone [1]) does the source give for `Cc1cc2c(o1)c(-c1ccc(C(=O)O)cc1)nn2Cc1ccccc1` here?
**A.** Its Activity is “inactive”.

**Q.** Which Activity (Cortical neurone [2]) does the source give for `Cc1cc2c(o1)c(-c1ccc(CO)cc1)nn2-c1ccccc1` here?
**A.** Its Activity is “inactive”.

**Q.** What about the Activity [3] of the same molecule?
**A.** The Activity was 75.6%.

**Q.** What about the Activity [4] of the same molecule?
**A.** The Activity was 70.3%.

**Q.** What about the Activity (Cortical neurone [5]) of the same molecule?
**A.** The Activity was “Active”.

**Q.** And the Activity [6]?
**A.** The Activity was 90.1%.

**Q.** What about the Activity [7] of the same molecule?
**A.** The Activity was 81.5%.

**Q.** What about the Activity [8] of the same molecule?
**A.** Its Activity is 100.2%.

**Q.** And the Activity [9]?
**A.** Its Activity is 71.9%.

**Q.** What about the Activity (Cortical neurone [1]) of the same molecule?
**A.** The Activity was “Active”.

**Q.** And the Activity [10]?
**A.** Its Activity is “Non-toxic”.

**Q.** With `Cc1cc2c(o1)c(-c1ccc(C(=O)O)cc1)nn2-c1ccccc1` as the molecule, how does the Activity (Cortical neurone [1]) read?
**A.** Its Activity is “inactive”.
